Our source for the log(43000/Ki) values is ChEMBL document CHEMBL2331360, “QSAR studies of sulfamate and sulfamide inhibitors targeting human carbonic anhydrase isozymes I, II, IX and XII” (Bioorg Med Chem, 2013).

Test [1] deals with Carbonic anhydrase 9 (Homo sapiens) (UniProt Q16790).
Description: Inhibition of human carbonic anhydrase-9
The target in test [2] is Carbonic anhydrase 2 (Homo sapiens) (UniProt P00918).
Description: Inhibition of human carbonic anhydrase-2

Regarding `NS(=O)(=O)Oc1ccc(NC(=O)NC23CC4CC(CC(C4)C2)C3)cc1`, the log(43000/Ki) was 3.31 in test [1] and 1.96 in test [2].

Turning to `COc1ccc(NC(=O)Nc2ccc(NS(N)(=O)=O)cc2)c(C)c1`, the log(43000/Ki) was found to be 3.31 in test [1] and 2.14 in test [2].

Consider `NS(=O)(=O)Nc1ccc(NC(=O)Nc2ccc(Cl)cc2)cc1`, for which the figures for the log(43000/Ki) in test [1] and in test [2] were 3 and 2.13, respectively.

Consider `CCCCOc1ccc(NC(=O)Nc2ccc(NS(N)(=O)=O)cc2)cc1`, for which the log(43000/Ki) in test [1] worked out at 3.43; in test [2] it was 2.14.

Take `COc1ccc(C)cc1NC(=O)Nc1ccc(NS(N)(=O)=O)cc1`: the log(43000/Ki) was found to be 3.03 in test [1] and 1.99 in test [2].

For the compound `CC(NC(=O)Nc1ccc(NS(N)(=O)=O)cc1)c1cccc2ccccc12` (stereo not drawn), the results for the log(43000/Ki) in test [1] and in test [2] were 3.35 and 2.02, respectively.

As for `NS(=O)(=O)Nc1ccc(NC(=O)Nc2cccc([N+](=O)[O-])c2)cc1`, the figures for the log(43000/Ki) in test [1] and in test [2] were 3.43 and 2.01, respectively.

As for `NS(=O)(=O)Nc1ccc(NC(=O)NC2CCCCC2)cc1`, the figures for the log(43000/Ki) in test [1] and in test [2] were 2.55 and 2.08, respectively.

For `Cc1cc(C)cc(NC(=O)Nc2ccc(NS(N)(=O)=O)cc2)c1`, the values for the log(43000/Ki) in test [1] and in test [2] were 3.63 and 1.8, respectively.

Regarding `NS(=O)(=O)Nc1ccc(NC(=O)NCCc2ccccc2)cc1`, the log(43000/Ki) in test [1] was 3.59; in test [2], 2.44.

For `CC(C)c1ccccc1NC(=O)Nc1ccc(NS(N)(=O)=O)cc1`, the log(43000/Ki) in test [1] turned out to be 2.64; in test [2] it was 1.8.

As for `NS(=O)(=O)Nc1ccc(NC(=O)NCc2ccco2)cc1`, the log(43000/Ki) was found to be 3.35 in test [1] and 2.1 in test [2].

Regarding `NS(=O)(=O)Nc1ccc(NC(=O)Nc2ccccc2-c2ccccc2)cc1`, the log(43000/Ki) in test [1] stood at 2.47; in test [2], 1.68.

Turning to `NS(=O)(=O)Nc1ccc(NC(=O)NCc2ccccc2)cc1`, the log(43000/Ki) in test [1] stood at 3.63; in test [2], 2.47.
